# Test results reported in paper PMC9648375, “Identification of the first-in-class dual inhibitors of human DNA topoisomerase IIα and indoleamine-2,3-dioxygenase 1 (IDO 1) with strong anticancer properties” (Journal of Enzyme Inhibition and Medicinal Chemistry, 2022).
# Test system: not listed separately
# Assay: MTT assay
# Type: cell-based
# Settings: human, HEK-293 cells (normal reference cell line), HEK-293 (normal cells), 24h, read-out: IC50, cytotoxicity
# Procedure: (§1) Therefore, the whole set of compounds were tested by using MTT assay in order to check their overall cytotoxic effect. The growth of cells was monitored after 24 and 48 h of incubation with the increased concentrations (1–100 µg/ml) of the thiosemicarbazide derivatives. […] This confirms that the compounds tested combine different mechanisms of anticancer activity, and DNA topoisomerase II inhibition is only one of them.
# (§2) Cytotoxicity of the synthesised compounds were examined against a panel of the cancer cell lines, MCF-7 (estrogen-dependent human breast cancer cells), MDA-MB-231 (oestrogen-independent human breast cancer cells), SCC- 25 (squamous cell carcinoma of the tongue), FaDu (squamous cell carcinoma of the pharynx), A- 549 (human lung carcinoma), AGS (human gastric adenocarcinoma), LS-180, HT-29 (colon cancer cell lines), T98G (glioblastoma cells), A375 (melanoma cells). Human embryonic kidney (HEK-293) cells and human normal skin fibroblasts (CRL-2072) were used as reference cell lines. The investigated cell lines were obtained from American Type Culture Collection (ATCC; Manassas, VA, USA). A375, MCF-7, MDA-MB-231, T98G cells were cultured in Dulbecco’s Modified Eagle’s Medium (DMEM) (Sigma Aldrich, St. Louis, MO, USA) supplemented with 10% heat inactivated foetal bovine serum (FBS), penicillin (100 U/mL), and streptomycin (100 μg/mL). SCC-25 cells were cultured in 1:1 mixture of Dulbecco’s modified Eagle’s medium and Ham’s F12 Medium (Sigma Aldrich, St. Louis, MO, USA) supplemented with 400 ng/ml hydrocortisone, 10% FBS, penicillin (100 U/mL), and streptomycin (100 μg/mL). A549 and AGS cells were maintained in F-12K Medium (Sigma Aldrich, St. Louis, MO, USA). LS-180 and FaDu cells were cultured in Eagle’s Minimum Essential Medium. HT-29 cells were maintained in McCoy’s 5 A Medium (Sigma Aldrich, St. Louis, MO, USA) supplemented with 10%FBS, penicillin (100 U/mL), and streptomycin (100 μg/mL). All the cells were maintained at 37 °C in a humidified atmosphere of 5% CO2.
# (§3) The synthesised compounds were dissolved in DMSO in order to obtain stock solutions. At the day of the experiment, the suspension of cells (1 × 10^5 cells/mL) in the respective medium was applied to a 96-well plate at 100 μL per well. […] The control cells were cultured only with a medium containing 2% FBS. Cytotoxicity of DMSO was also checked at concentrations present in respective dilutions of stock solution. After 24 h (or 48 h) of incubation, 15 μL of MTT working solution (5 mg/mL in PBS) was added to each well. The plate was incubated for 3 h. Subsequently, 100 μL of 10% SDS solution was added to each well. Cells were incubated overnight at 37 °C to dissolve the precipitated formazan crystals. The concentration of the dissolved formazan was evaluated by measuring the absorbance at λ = 570 nm, using a microplate reader (Epoch, BioTek Instruments, Inc., Winooski, VT, USA). At least two independent experiments were performed in triplicates. The results of the MTT assay were expressed as mean ± SD. […] IC50 values of the investigated derivatives and standards were calculated using the IC50 calculator.[23]
row,SMILES,IC50 at 24 h [µg/mL]
1,"O=C(Cc1cccc2ccccc12)NNC(=S)NC(=O)c1ccccc1Cl [Compound 8, 4-(2-Chlorobenzoyl)-1-[(naphth-1-yl)acetyl]thiosemicarbazide]",> 100
2,"O=C(Cc1cccc2ccccc12)NNC(=S)NC(=O)c1ccccc1 [Compound 9, 4-Benzoyl-1-[(naphth-1-yl)acetyl]thiosemicarbazide]",67

# Same assay, conditions: human, HEK-293 cells (normal reference cell line), HEK-293 (normal cells), 48h, read-out: IC50, cytotoxicity
row,SMILES,IC50 at 48 h [µg/mL]
1,"O=C(Cc1cccc2ccccc12)NNC(=S)NC(=O)c1ccccc1Cl [Compound 8, 4-(2-Chlorobenzoyl)-1-[(naphth-1-yl)acetyl]thiosemicarbazide]",23.4
2,"O=C(Cc1cccc2ccccc12)NNC(=S)NC(=O)c1ccccc1 [Compound 9, 4-Benzoyl-1-[(naphth-1-yl)acetyl]thiosemicarbazide]",23

# Test system: A375 (melanoma cells)
# Assay: MTT assay
# Type: cell-based
# Settings: Homo sapiens, A-375, 24h, read-out: IC50, cytotoxicity
# Procedure: as §1, §2, §3
row,SMILES,IC50 [µg/mL]
1,"O=C(Cc1cccc2ccccc12)NNC(=S)NC(=O)c1ccccc1Cl [Compound 8, 4-(2-Chlorobenzoyl)-1-[(naphth-1-yl)acetyl]thiosemicarbazide]",> 100
2,"O=C(Cc1cccc2ccccc12)NNC(=S)NC(=O)c1ccccc1 [Compound 9, 4-Benzoyl-1-[(naphth-1-yl)acetyl]thiosemicarbazide]",> 100

# Same assay, conditions: Homo sapiens, A-375, 48 h, read-out: IC50, cytotoxicity
row,SMILES,IC50 [µg/mL]
1,"O=C(Cc1cccc2ccccc12)NNC(=S)NC(=O)c1ccccc1Cl [Compound 8, 4-(2-Chlorobenzoyl)-1-[(naphth-1-yl)acetyl]thiosemicarbazide]",9.45
2,"O=C(Cc1cccc2ccccc12)NNC(=S)NC(=O)c1ccccc1 [Compound 9, 4-Benzoyl-1-[(naphth-1-yl)acetyl]thiosemicarbazide]",8.14

# Test system: A549 (human lung carcinoma)
# Assay: MTT assay
# Type: cell-based
# Settings: 24h, read-out: IC50, cytotoxicity
# Procedure: as §1, §2, §3
row,SMILES,IC50 [µg/mL]
1,"O=C(Cc1cccc2ccccc12)NNC(=S)NC(=O)c1ccccc1Cl [Compound 8, 4-(2-Chlorobenzoyl)-1-[(naphth-1-yl)acetyl]thiosemicarbazide]",> 100
2,"O=C(Cc1cccc2ccccc12)NNC(=S)NC(=O)c1ccccc1 [Compound 9, 4-Benzoyl-1-[(naphth-1-yl)acetyl]thiosemicarbazide]",> 100

# Same assay, conditions: 48h, read-out: IC50, cytotoxicity
row,SMILES,IC50 [µg/mL]
1,"O=C(Cc1cccc2ccccc12)NNC(=S)NC(=O)c1ccccc1Cl [Compound 8, 4-(2-Chlorobenzoyl)-1-[(naphth-1-yl)acetyl]thiosemicarbazide]",> 100
2,"O=C(Cc1cccc2ccccc12)NNC(=S)NC(=O)c1ccccc1 [Compound 9, 4-Benzoyl-1-[(naphth-1-yl)acetyl]thiosemicarbazide]",> 100

# Test system: AGS (human gastric adenocarcinoma)
# Assay: MTT assay
# Type: cell-based
# Settings: 24h, read-out: IC50, cytotoxicity
# Procedure: as §1, §2, §3
row,SMILES,IC50 [µg/mL]
1,"O=C(Cc1cccc2ccccc12)NNC(=S)NC(=O)c1ccccc1Cl [Compound 8, 4-(2-Chlorobenzoyl)-1-[(naphth-1-yl)acetyl]thiosemicarbazide]",> 100
2,"O=C(Cc1cccc2ccccc12)NNC(=S)NC(=O)c1ccccc1 [Compound 9, 4-Benzoyl-1-[(naphth-1-yl)acetyl]thiosemicarbazide]",> 100

# Same assay, conditions: 48 h, read-out: IC50, cytotoxicity
row,SMILES,IC50 [µg/mL]
1,"O=C(Cc1cccc2ccccc12)NNC(=S)NC(=O)c1ccccc1Cl [Compound 8, 4-(2-Chlorobenzoyl)-1-[(naphth-1-yl)acetyl]thiosemicarbazide]",> 100
2,"O=C(Cc1cccc2ccccc12)NNC(=S)NC(=O)c1ccccc1 [Compound 9, 4-Benzoyl-1-[(naphth-1-yl)acetyl]thiosemicarbazide]",19.7

# Test system: FaDu (squamous cell carcinoma of the pharynx)
# Assay: MTT assay
# Type: cell-based
# Settings: Homo sapiens, 24h, read-out: IC50, cytotoxicity
# Procedure: as §1, §2, §3
row,SMILES,IC50 [µg/mL]
1,"O=C(Cc1cccc2ccccc12)NNC(=S)NC(=O)c1ccccc1Cl [Compound 8, 4-(2-Chlorobenzoyl)-1-[(naphth-1-yl)acetyl]thiosemicarbazide]",> 100
2,"O=C(Cc1cccc2ccccc12)NNC(=S)NC(=O)c1ccccc1 [Compound 9, 4-Benzoyl-1-[(naphth-1-yl)acetyl]thiosemicarbazide]",28.2

# Same assay, conditions: Homo sapiens, 48 h, read-out: IC50, cytotoxicity
row,SMILES,IC50 [µg/mL]
1,"O=C(Cc1cccc2ccccc12)NNC(=S)NC(=O)c1ccccc1Cl [Compound 8, 4-(2-Chlorobenzoyl)-1-[(naphth-1-yl)acetyl]thiosemicarbazide]",12.8
2,"O=C(Cc1cccc2ccccc12)NNC(=S)NC(=O)c1ccccc1 [Compound 9, 4-Benzoyl-1-[(naphth-1-yl)acetyl]thiosemicarbazide]",19.5

# Test system: HT-29 (colon cancer cell line)
# Assay: MTT assay
# Type: cell-based
# Settings: Homo sapiens; HT-29, MTT, 24h; read-out: IC50, cytotoxicity
# Procedure: as §1, §2, §3
row,SMILES,IC50 [µg/mL]
1,"O=C(Cc1cccc2ccccc12)NNC(=S)NC(=O)c1ccccc1Cl [Compound 8, 4-(2-Chlorobenzoyl)-1-[(naphth-1-yl)acetyl]thiosemicarbazide]",> 100
2,"O=C(Cc1cccc2ccccc12)NNC(=S)NC(=O)c1ccccc1 [Compound 9, 4-Benzoyl-1-[(naphth-1-yl)acetyl]thiosemicarbazide]",> 100

# Same assay, conditions: Homo sapiens; HT-29, MTT, 48 h; read-out: IC50, cytotoxicity
row,SMILES,IC50 [µg/mL]
1,"O=C(Cc1cccc2ccccc12)NNC(=S)NC(=O)c1ccccc1Cl [Compound 8, 4-(2-Chlorobenzoyl)-1-[(naphth-1-yl)acetyl]thiosemicarbazide]",14.8
2,"O=C(Cc1cccc2ccccc12)NNC(=S)NC(=O)c1ccccc1 [Compound 9, 4-Benzoyl-1-[(naphth-1-yl)acetyl]thiosemicarbazide]",5.23

# Test system: LS180 (colon cancer cell line)
# Assay: MTT assay
# Type: cell-based
# Settings: Homo sapiens, 24h, read-out: IC50, cytotoxicity
# Procedure: as §1, §2, §3
row,SMILES,IC50 [µg/mL]
1,"O=C(Cc1cccc2ccccc12)NNC(=S)NC(=O)c1ccccc1Cl [Compound 8, 4-(2-Chlorobenzoyl)-1-[(naphth-1-yl)acetyl]thiosemicarbazide]",> 100
2,"O=C(Cc1cccc2ccccc12)NNC(=S)NC(=O)c1ccccc1 [Compound 9, 4-Benzoyl-1-[(naphth-1-yl)acetyl]thiosemicarbazide]",> 100

# Same assay, conditions: Homo sapiens, 48 h, read-out: IC50, cytotoxicity
row,SMILES,IC50 [µg/mL]
1,"O=C(Cc1cccc2ccccc12)NNC(=S)NC(=O)c1ccccc1Cl [Compound 8, 4-(2-Chlorobenzoyl)-1-[(naphth-1-yl)acetyl]thiosemicarbazide]",41.1
2,"O=C(Cc1cccc2ccccc12)NNC(=S)NC(=O)c1ccccc1 [Compound 9, 4-Benzoyl-1-[(naphth-1-yl)acetyl]thiosemicarbazide]",19.8

# Test system: MCF-7 (estrogen-dependent human breast cancer cells)
# Assay: MTT assay
# Type: cell-based
# Settings: MCF7, MCF-7, MTT, 24h, read-out: IC50, cytotoxicity
# Procedure: as §1, §2, §3
row,SMILES,IC50 [µg/mL]
1,"O=C(Cc1cccc2ccccc12)NNC(=S)NC(=O)c1ccccc1Cl [Compound 8, 4-(2-Chlorobenzoyl)-1-[(naphth-1-yl)acetyl]thiosemicarbazide]",> 100
2,"O=C(Cc1cccc2ccccc12)NNC(=S)NC(=O)c1ccccc1 [Compound 9, 4-Benzoyl-1-[(naphth-1-yl)acetyl]thiosemicarbazide]",> 100

# Same assay, conditions: MCF7, MCF-7, MTT, 48h, read-out: IC50, cytotoxicity
row,SMILES,IC50 [µg/mL]
1,"O=C(Cc1cccc2ccccc12)NNC(=S)NC(=O)c1ccccc1Cl [Compound 8, 4-(2-Chlorobenzoyl)-1-[(naphth-1-yl)acetyl]thiosemicarbazide]",12.7
2,"O=C(Cc1cccc2ccccc12)NNC(=S)NC(=O)c1ccccc1 [Compound 9, 4-Benzoyl-1-[(naphth-1-yl)acetyl]thiosemicarbazide]",16.4

# Test system: MDA-MB-231 (estrogen-independent human breast cancer cells)
# Assay: MTT assay
# Type: cell-based
# Settings: MDA-MB-231, MTT, 24h, read-out: IC50, cytotoxicity
# Procedure: as §1, §2, §3
row,SMILES,IC50 [µg/mL]
1,"O=C(Cc1cccc2ccccc12)NNC(=S)NC(=O)c1ccccc1Cl [Compound 8, 4-(2-Chlorobenzoyl)-1-[(naphth-1-yl)acetyl]thiosemicarbazide]",> 100
2,"O=C(Cc1cccc2ccccc12)NNC(=S)NC(=O)c1ccccc1 [Compound 9, 4-Benzoyl-1-[(naphth-1-yl)acetyl]thiosemicarbazide]",> 100

# Same assay, conditions: MDA-MB-231, MTT, 48h, read-out: IC50, cytotoxicity
row,SMILES,IC50 [µg/mL]
1,"O=C(Cc1cccc2ccccc12)NNC(=S)NC(=O)c1ccccc1Cl [Compound 8, 4-(2-Chlorobenzoyl)-1-[(naphth-1-yl)acetyl]thiosemicarbazide]",17.2
2,"O=C(Cc1cccc2ccccc12)NNC(=S)NC(=O)c1ccccc1 [Compound 9, 4-Benzoyl-1-[(naphth-1-yl)acetyl]thiosemicarbazide]",> 100

# Test system: SCC-25 (squamous cell carcinoma of the tongue)
# Assay: MTT assay
# Type: cell-based
# Settings: Homo sapiens; SCC-25, MTT, 24h; read-out: IC50, cytotoxicity
# Procedure: as §1, §2, §3
row,SMILES,IC50 [µg/mL]
1,"O=C(Cc1cccc2ccccc12)NNC(=S)NC(=O)c1ccccc1Cl [Compound 8, 4-(2-Chlorobenzoyl)-1-[(naphth-1-yl)acetyl]thiosemicarbazide]",> 100
2,"O=C(Cc1cccc2ccccc12)NNC(=S)NC(=O)c1ccccc1 [Compound 9, 4-Benzoyl-1-[(naphth-1-yl)acetyl]thiosemicarbazide]",32.2

# Same assay, conditions: Homo sapiens; SCC-25, MTT, 48 h; read-out: IC50, cytotoxicity
row,SMILES,IC50 [µg/mL]
1,"O=C(Cc1cccc2ccccc12)NNC(=S)NC(=O)c1ccccc1Cl [Compound 8, 4-(2-Chlorobenzoyl)-1-[(naphth-1-yl)acetyl]thiosemicarbazide]",29.5
2,"O=C(Cc1cccc2ccccc12)NNC(=S)NC(=O)c1ccccc1 [Compound 9, 4-Benzoyl-1-[(naphth-1-yl)acetyl]thiosemicarbazide]",34.5

# Test system: T98G (glioblastoma cells)
# Assay: MTT assay
# Type: cell-based
# Settings: Homo sapiens, 24h, read-out: IC50, cytotoxicity
# Procedure: as §1, §2, §3
row,SMILES,IC50 [µg/mL]
1,"O=C(Cc1cccc2ccccc12)NNC(=S)NC(=O)c1ccccc1Cl [Compound 8, 4-(2-Chlorobenzoyl)-1-[(naphth-1-yl)acetyl]thiosemicarbazide]",97.2
2,"O=C(Cc1cccc2ccccc12)NNC(=S)NC(=O)c1ccccc1 [Compound 9, 4-Benzoyl-1-[(naphth-1-yl)acetyl]thiosemicarbazide]",> 100

# Same assay, conditions: Homo sapiens, 48h, read-out: IC50, cytotoxicity
row,SMILES,IC50 [µg/mL]
1,"O=C(Cc1cccc2ccccc12)NNC(=S)NC(=O)c1ccccc1Cl [Compound 8, 4-(2-Chlorobenzoyl)-1-[(naphth-1-yl)acetyl]thiosemicarbazide]",11.8
2,"O=C(Cc1cccc2ccccc12)NNC(=S)NC(=O)c1ccccc1 [Compound 9, 4-Benzoyl-1-[(naphth-1-yl)acetyl]thiosemicarbazide]",17.4

# Test system: not given
# Assay: not given
# Settings: not given
row,SMILES,melting point [°C]
1,"O=C(Cc1cccc2ccccc12)NNC(=S)NC(=O)c1ccccc1Cl [Compound 8, 4-(2-Chlorobenzoyl)-1-[(naphth-1-yl)acetyl]thiosemicarbazide]",174 to 176
2,"O=C(Cc1cccc2ccccc12)NNC(=S)NC(=O)c1ccccc1 [Compound 9, 4-Benzoyl-1-[(naphth-1-yl)acetyl]thiosemicarbazide]",164 to 166
